Structures can show the parent of a compound that is named as a salt.
Key:
[1] = molecular target: T1, catalytic domain (JH1, amino acids 808-1132) of human JAK2 (Homo sapiens, UniProt O60674); test: JAK2 HTRF Enzyme Activity Assay; type: biochemical; conditions: ATP 30 μM, read-out: ENZ 30UMATP
T1 construct: catalytic domain (JH1, amino acids 808-1132) of human JAK2; His (N); purchased BPS Bioscience 40450; host or cells: baculovirus expression system
Procedure: Example D. JAK2 HTRF Enzyme Activity Assay
JAK2 enzyme activity assays utilize catalytic domain (JH1, amino acids 808-1132) of human JAK2 expressed as N-terminal His-tagged protein in a baculovirus expression system (BPS Bioscience, Catalog #40450). The assays was conducted in black 384-well polystyrene plates in a final reaction volume of 20 μL. JAK2 (0.015 nM) was incubated with compounds (100 nL serially diluted in DMSO) in the presence of ATP (30 μM or 1 mM) and 500 nM Biotin-labeled […] (SEQ ID NO.: 1) peptide (BioSource International, custom synthesis) in assay buffer (50 mM Tris, pH=7.5, 10 mM MgCl2, 0.01% Brij-35, 0.1% BSA, 1 mM EGTA, 5% Glycerol and 5 mM DTT) for 60 minutes at 25° C. The reactions were stopped by the addition of 10 μL of detection buffer (50 mM Tris, pH 7.8, 0.5 mg/mL BSA, 150 mM NaCl), supplemented with EDTA, LANCE Eu-W1024 anti-phosphotyrosine (PY20), (PerkinElmer, Catalog #AD0067) and Streptavidin SureLight APC (PerkinElmer Catalog #CR130-100), for a final concentration of 15 mM, 1.5 nM and 75 nM, respectively. HTRF signals were read after 30 minutes incubation at room temperature on a PHERAstar FS plate reader (BMG LABTECH). Data was analyzed with IDBS XLfit and GraphPad Prism 5.0 software using a four parameter dose response curve to determine IC50 for each compound.

[2] = molecular target: T2, pseudo-kinase domain (JH2, amino-acids 536-812) of human V617F mutant JAK2 (Homo sapiens, UniProt O60674, F794H/V617F/W659A/W777A); test: JAK2 LanthaScreen JH2-V617F Binding Assay; conditions: 1 hour at 25° C.
T2 construct: pseudo-kinase domain (JH2, amino-acids 536-812 with 3 surface mutations W659A, W777A, F794H); purchased BPS Bioscience 79498; host or cells: baculovirus expression system
T2 sequence (O60674 536-812 V617F/W659A/W777A/F794H): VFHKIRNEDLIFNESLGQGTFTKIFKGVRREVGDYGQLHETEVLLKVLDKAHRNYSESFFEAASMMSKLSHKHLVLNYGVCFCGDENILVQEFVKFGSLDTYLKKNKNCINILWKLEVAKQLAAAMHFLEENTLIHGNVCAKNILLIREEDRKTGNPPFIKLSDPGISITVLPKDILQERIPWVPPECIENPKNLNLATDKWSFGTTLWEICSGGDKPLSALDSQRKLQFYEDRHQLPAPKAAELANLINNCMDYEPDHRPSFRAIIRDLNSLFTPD
Procedure: Example C. JAK2 LanthaScreen JH2-V617F Binding Assay
(§1) JAK2 JH2-V617F binding assay utilizes pseudo-kinase domain (JH2, amino-acids 536-812 with 3 surface mutations W659A, W777A, F794H) of human V617F mutant JAK2 expressed as C-terminal His-Avi-tagged, biotinylated protein in a baculovirus expression system (BPS Bioscience, Catalog #79498). The assay was conducted in black 384-well polystyrene plates in a final reaction volume of 20 μL. JAK2 JH2-V617F (0.26 nM) was incubated with compounds (100 nL serially diluted in DMSO) in the presence of 50 nM Fluorescent JAK2-JH2 Tracer (MedChem Express Catalog #HY-102055) and 0.25 nM Streptavidin-Tb cryptate (Cisbio Part #610SATLB) in assay buffer (50 mM Tris, pH=7.5, 10 mM MgCl2, 0.01% Brij-35, 0.1% BSA, 1 mM EGTA, 5% Glycerol and 5 mM DTT). Non-specific binding was accessed in the presence of 2 mM ATP. After incubation for 1 hour at 25° C., LanthaScreen signals were read on a PHERAstar FS plate reader (BMG LABTECH). Data was analyzed with IDBS XLfit and GraphPad Prism 5.0 software using a four parameter dose response curve to determine IC50 for each compound.

[3] = molecular target: T3, pseudo-kinase domain (JH2, amino-acids 536-812) of human Wild Type JAK2 (Homo sapiens, UniProt O60674, F794H/W659A/W777A); test: JAK2 LanthaScreen JH2-WT Binding Assay; conditions: 1 hour at 25° C.
T3 construct: pseudo-kinase domain (JH2, amino-acids 536-812 with 3 surface mutations W659A, W777A, F794H); purchased BPS Bioscience 79463; host or cells: baculovirus expression system
T3 sequence (O60674 536-812 W659A/W777A/F794H): as the sequence (O60674 536-812 V617F/W659A/W777A/F794H) above, with F82V counted along it
Procedure: Example B. JAK2 LanthaScreen JH2-WT Binding Assay
as §1, with “JH2-WT” for “JH2-V617F”, “Wild Type” for “V617F mutant”, “#79463).” for “#79498).”, “JH2-WT (0.145” for “JH2-V617F (0.26”

[4] = molecular target: T4, catalytic domain (JH1, amino acids 826-1132) of human JAK2 (Homo sapiens, UniProt O60674); test: JAK2 LanthaScreen JH1 Binding Assay; conditions: 2 hours at 25° C.
T4 construct: catalytic domain (JH1, amino acids 826-1132) of human JAK2; purchased Carna Biosciences 08-445-20N; host or cells: baculovirus expression system
T4 sequence (O60674 826-1132): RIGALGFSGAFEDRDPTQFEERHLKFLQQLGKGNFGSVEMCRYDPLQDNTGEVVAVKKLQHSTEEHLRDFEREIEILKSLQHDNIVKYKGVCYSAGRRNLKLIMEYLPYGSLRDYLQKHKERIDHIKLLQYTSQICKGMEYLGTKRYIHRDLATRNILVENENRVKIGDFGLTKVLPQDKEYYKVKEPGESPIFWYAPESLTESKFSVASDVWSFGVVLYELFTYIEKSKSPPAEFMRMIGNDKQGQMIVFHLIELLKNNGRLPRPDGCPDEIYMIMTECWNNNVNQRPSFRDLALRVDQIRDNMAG
Procedure: Example A. JAK2 LanthaScreen JH1 Binding Assay
JAK2 JH1 binding assay utilizes catalytic domain (JH1, amino acids 826-1132) of human JAK2 expressed as N-terminal FLAG-tagged, biotinylated protein in a baculovirus expression system (Carna Biosciences, Product #08-445-20N). The assay was conducted in black 384-well polystyrene plates in a final reaction volume of 20 μL. JAK2 JH1 (1.5 nM) was incubated with compounds (100 nL serially diluted in DMSO) in the presence of 50 nM Fluorescent JAK2-JH1 Tracer and 0.5 nM Streptavidin-Tb cryptate (Cisbio Part #610SATLB) in assay buffer (50 mM Tris, pH=7.5, 10 mM MgCl2, 0.01% Brij-35, 0.1% BSA, 1 mM EGTA, 5% Glycerol and 5 mM DTT). Non-specific binding was accessed in the presence of 2 mM ATP. After incubation for 2 hours at 25° C., LanthaScreen signals were read on a PHERAstar FS plate reader (BMG LABTECH). Data was analyzed with IDBS XLfit and GraphPad Prism 5.0 software using a four parameter dose response curve to determine IC50 for each compound.

T1 sequence (O60674 808-1132): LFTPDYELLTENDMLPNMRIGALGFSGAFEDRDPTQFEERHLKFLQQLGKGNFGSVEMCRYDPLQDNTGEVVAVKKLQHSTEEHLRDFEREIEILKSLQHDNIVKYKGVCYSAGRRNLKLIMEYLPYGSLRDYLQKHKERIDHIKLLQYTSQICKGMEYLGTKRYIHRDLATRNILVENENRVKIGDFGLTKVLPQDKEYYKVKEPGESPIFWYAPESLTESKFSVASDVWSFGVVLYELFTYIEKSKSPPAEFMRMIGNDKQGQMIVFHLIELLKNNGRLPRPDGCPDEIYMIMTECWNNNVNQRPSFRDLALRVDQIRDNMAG

Work on `CN1C(=O)C2(CCN(S(=O)(=O)C3(CC#N)CC3)C2)c2c1cnc1[nH]c(-c3cnn(C)c3)c(-c3ccc4c(cnn4C)c3)c21` (racemic) [Example 71, 2-(1-((6-Methyl-1-(1-methyl-1H-indazol-5-yl)-2-(1-methyl-1H-pyrazol-4-yl)-7-oxo-6,7-dihydro-3H-spiro[dipyrrolo[2,3-b:3′,2′-d]pyridine-8,3′-pyrrolidin]-1′-yl)sulfonyl)cyclopropyl)acetonitrile, trifluoroacetate salt] yielded an IC50 [1] of 1250 to 2500 nM, an IC50 [2] of no more than 100 nM and an IC50 [3] of no more than 100 nM. The IC50 [4] was 1250 to 2500 nM.

`CON1C(=O)C2(CCN(CC3(CC#N)CC3)C2)c2c1cnc1[nH]c(-c3cnn(C)c3)c(-c3ccc4c(cnn4C)c3)c21` (racemic) [Example 72, 2-(1-((6-Methoxy-1-(1-methyl-1H-indazol-5-yl)-2-(1-methyl-1H-pyrazol-4-yl)-7-oxo-6,7-dihydro-3H-spiro[dipyrrolo[2,3-b:3′,2′-d]pyridine-8,3′-pyrrolidin]-1′-yl)methyl)cyclopropyl)acetonitrile, trifluoroacetate salt] showed an IC50 [1] of 500 to 1250 nM, an IC50 [2] of 1250 to 2500 nM and an IC50 [3] of 500 to 1250 nM. For the same compound, the IC50 [4] was greater than 2500 nM.

Work on `CN1C(=O)C2(CCN(C3(C)CCS(=O)(=O)C3)CC2)c2c1cnc1[nH]c(-c3cnn(C)c3)c(-c3ccc4c(cnn4C)c3)c21` (racemic) [Example 78, 6-Methyl-1′-(3-methyl-1,1-dioxidotetrahydrothiophen-3-yl)-1-(1-methyl-1H-indazol-5-yl)-2-(1-methyl-1H-pyrazol-4-yl)-3,6-dihydro-7H-spiro[dipyrrolo[2,3-b:3′-2′-d]pyridine-8,4′-piperidin]-7-one] yielded an IC50 [1] of 500 to 1250 nM, an IC50 [2] of no more than 100 nM and an IC50 [3] of no more than 100 nM. The IC50 [4] was 500 to 1250 nM.

`COC(=O)NC1CC(CC#N)(N2CCC3(CC2)C(=O)N(C)c2cnc4[nH]c(-c5cnn(C)c5)c(-c5ccccc5)c4c23)C1` (single isomer, unassigned) [Example 27, Methyl (3-(cyanomethyl)-3-(6-methyl-2-(1-methyl-1H-pyrazol-4-yl)-7-oxo-1-phenyl-6,7-dihydro-3H-spiro[dipyrrolo[2,3-b:3′,2′-d]pyridine-8,4′-piperidin]-1′-yl)cyclobutyl)carbamate] showed an IC50 [1] of 100 to 500 nM, an IC50 [2] of no more than 100 nM and an IC50 [3] of no more than 100 nM. The IC50 [4] was 100 to 500 nM.

Work on `CCS(=O)(=O)N1CCC[C@]2(CC1)C(=O)N(C)c1cnc3[nH]c(-c4cnn(C(C)C)c4)c(-c4ccc5c(cnn5C)c4)c3c12` (single isomer, unassigned) [Example 53a] yielded an IC50 [1] greater than 2500 nM, an IC50 [2] of 500 to 1250 nM and an IC50 [3] of 100 to 500 nM. For the same compound, the IC50 [4] was greater than 2500 nM.

`CCS(=O)(=O)N1CCC[C@@]2(CC1)C(=O)N(C)c1cnc3[nH]c(-c4cnn(C(C)C)c4)c(-c4ccc5c(cnn5C)c4)c3c12` (single isomer, unassigned) [Example 53b] gave an IC50 [1] of 100 to 500 nM, an IC50 [2] of no more than 100 nM and an IC50 [3] of no more than 100 nM. It also gave an IC50 [4] of 100 to 500 nM.

In the case of `CN1C(=O)[C@]2(CCN(CC3(CC#N)CC3)C2)c2c1cnc1[nH]c(-c3cnn(C)c3)c(-c3ccc4c(cnn4C)c3)c21` (single isomer, unassigned) [Example 65], the IC50 [1] is reported as greater than 2500 nM, the IC50 [2] is reported as no more than 100 nM and the IC50 [3] is reported as no more than 100 nM. For the same compound, the IC50 [4] was greater than 2500 nM.

With `CN1C(=O)[C@@]2(CCN(CC3(CC#N)CC3)C2)c2c1cnc1[nH]c(-c3cnn(C)c3)c(-c3ccc4c(cnn4C)c3)c21` (single isomer, unassigned) [Example 66] the IC50 [1] was 500 to 1250 nM, the IC50 [2] was no more than 100 nM and the IC50 [3] was no more than 100 nM. For the same compound, the IC50 [4] was 500 to 1250 nM.

For `CO[C@H]1CC[C@@](CC#N)(N2CCC3(CC2)C(=O)N(C)c2cnc4[nH]c(-c5cnn(C)c5)c(-c5ccc6c(cnn6C)c5)c4c23)CC1` (single isomer, unassigned) [Example 75a, 2-(4-Methoxy-1-(6-methyl-1-(1-methyl-1H-indazol-5-yl)-2-(1-methyl-1H-pyrazol-4-yl)-7-oxo-6,7-dihydro-3H-spiro[dipyrrolo[2,3-b:3′,2′-d]pyridine-8,4′-piperidin]-1′-yl)cyclohexyl)acetonitrile], the IC50 [1] was 100 to 500 nM, the IC50 [2] was no more than 100 nM and the IC50 [3] was no more than 100 nM. The IC50 [4] was 100 to 500 nM.

`[2H]C([2H])([2H])n1ncc2cc(-c3c(-c4cnn(C)c4)[nH]c4ncc5c(c34)C3(CCN([C@](C)(CC#N)COC)CC3)C(=O)N5C)ccc21` (single isomer, unassigned) [Example 80a] gave an IC50 [1] of 1250 to 2500 nM, an IC50 [2] of no more than 100 nM and an IC50 [3] of no more than 100 nM. The IC50 [4] was 1250 to 2500 nM.

With `[2H]C([2H])([2H])n1ncc2cc(-c3c(-c4cnn(C)c4)[nH]c4ncc5c(c34)C3(CCN([C@@](C)(CC#N)COC)CC3)C(=O)N5C)ccc21` (single isomer, unassigned) [Example 80b] the IC50 [1] was 500 to 1250 nM, the IC50 [2] was no more than 100 nM and the IC50 [3] was no more than 100 nM. For the same compound, the IC50 [4] was 500 to 1250 nM.

Work on `[2H]C([2H])([2H])N1C(=O)C2(CCCN(S(=O)(=O)C3(C)CC3)CC2)c2c1cnc1[nH]c(-c3cnn(C(C)C)c3)c(-c3ccc4c(cnn4C)c3)c21` (single isomer, unassigned) [Example 103, 2′-(1-Isopropyl-1H-pyrazol-4-yl)-6′-(methyl-d3)-1′-(1-methyl-1H-indazol-5-yl)-1-((1-methylcyclopropyl)sulfonyl)-3′,6′-dihydro-7′H-spiro[azepane-4,8′-dipyrrolo[2,3-b:3′,2′-d]pyridin]-7′-one, trifluoroacetate salt] yielded an IC50 [1] of 500 to 1250 nM, an IC50 [2] of no more than 100 nM and an IC50 [3] of no more than 100 nM. For the same compound, the IC50 [4] was 100 to 500 nM.

— patent publication US11958861B2, “Spirocyclic lactams as JAK2 V617F inhibitors” (Incyte Corporation, priority 2021, dated 2024)
